The subject of series [1] is AChE-R mRNA. Nature of the series: In situ hybridization of AChE-R mRNA in monkey spinal cord neurons. The series is classed as in vivo, Cynomolgus monkey. The method, then:
(§1) In situ hybridization: Tissues were fixed in 4% paraformaldehyde and cut into 7 μm paraffin embedded sections. Spinal cord sections were deparaffinized, rehydrated using serial ethanol dilutions and permeabilized with proteinase K (10 μg/ml at room temp.). Slides were exposed to 5′ biotinylated, fully 2′-oxymethylated AChE-R or AChE-S-specific 50-mer cRNA probes complementary to human ACHE pseudo-intron 4 or exon 6, respectively [Grisaru et al. (2001) id ibid.]. Hybridization was performed overnight at 52° C. in hybridization mixture containing 10 μg/ml probe, 50 μg/ml yeast tRNA, 50 μg/ml heparin and 50% formamide in 375 mM Na chloride, 37.5 mM Na citrate, pH 4.5. For monkey sections, the probe was constructed according to the human AChE-R sequence; for rat sections, according to the mouse sequence. Slides were washed to remove non-hybridized probe, blocked with 1% skim milk containing 0.01% Tween-20 and 2 mM levamisole, an alkaline phosphatase inhibitor used to suppress non-specific staining and incubate with streptavidin-alkaline phosphatase (Amersham Pharmacia). Fast Red™ substrate (Roche Diagnostics) was used for detection. DAPI staining (Sigma Chemical Co., St. Louis, Mo., USA) served to visualize nuclei. Microscope images were analyzed with Image Pro Plus 4.0 (Media Cybernetics) software.
This experiment was conducted with six (3 males and 3 females) purpose-bred 15 month-old (young adult) Cynomolgus monkeys, divided in three groups (1, 2 and 3) of one male and one female each. Groups 1 and 2 received hEN101 daily by o.g. for a period of 7 days, at a concentration of 0.15 and 0.50 μg/g/day, respectively. Group 3 received daily i.v. injections of hEN101 for a period of 7 days at a dosage of 0.50 μg/g/day.
Paraffin-embedded 7 μm spinal cord sections were examined by in situ hybridization for the levels of AChE-R and AChE-S mRNA.
AChE-R-positive sections from monkey spinal cords were analyzed for the relation between cell body diameter and percentage of AChE-R positive cells (FIG. 15). Cells were divided into three categories according to their body diameter, and the percentage of AChE-R-positive cells from each category was evaluated. […] Either i.v. or p.o. administration of the higher EN101 concentration (500 μg/kg/day) reduced the percentage of AChE-R-positive neurons, compared to the lower concentration (p<0.05. Student's t test). […] We have yet to discover the functional correlate of cell size that determines the efficacy of antisense suppression of AChE-R expression.

Series [2] deals with AChE. The series can be described thus: Plasma cholinesterase activities in monkeys (Ellman assay, acetylthiocholine hydrolysis). The series is classed as in vivo, Cynomolgus monkey. As to the method:
In the 12 hr following the second day administration of hEN101, monkey plasma samples were collected and stored. Plasma cholinesterase activities were measured by spectrophotometry assessing the rate of hydrolysis of acetylthiocholine (measured by the Ellman assay, which quantifies the hydrolysis of acetylthiocholine) [Ellman, G. L., et al. (1961). Biochem. Pharmacol. 7, 88-95], in the absence or presence of iso-OMPA (a selective butyrylcholinesterase, BChE, inhibitor). […] When measured in the presence of 1×10^−5M iso-OMPA, AChE activity increased within the 5 hr post-injection.

Series [3] has as its system AChE-S mRNA. Nature of the series: In situ hybridization of AChE-S mRNA in monkey spinal cord. The series is classed as in vivo, Cynomolgus monkey. Particulars: oral 0.15 and 0.50, i.v. 0.50 μg/g/day, 7 days. As to the method:
as §1, with “software. […]” for “software.”

For series [4], the system named is EAMG rats. Nature of the series: Electromyography: CMAP ratio under repetitive 3 Hz nerve stimulation in EAMG rats. The series is classed as in vivo, rat. The settings on record: for CMAP ratio (5th vs. 1st amplitude): average ± SEM.
For series [5], the system named is healthy rats. The series can be described thus: Electromyography: CMAP ratio in naive (healthy) rats. Particulars: for CMAP ratio (5th vs. 1st amplitude): naive rats, 50 μg/Kg, average ± SEM. The series is classed as in vivo, rat. The method, then: Electromyography: Rats were anesthetized by i.p. injection of […] pentobarbital, immobilized, and subjected to repetitive sciatic nerve stimulation, using a pair of concentric needle electrodes at 3 Hz. Baseline compound muscle action potential (CMAP) was recorded by a concentric needle electrode placed in the gastrocnemius muscle, following a train of repetitive nerve stimulations at supramaximal intensity. Decrease (percent) in the amplitude of the fifth vs. the first muscle action potential was determined in two sets of repetitive stimulations for each animal. A reduction of 10% or more was considered indicative of neuromuscular transmission dysfunction.
Drug administration: Intravenous injections and blood sampling for anti-AChR antibodies testing were via the right jugular vein under anesthesia. For oral administration, a special needle for oral gavage feeding was used, which is curved with a ball end (Stoelting, Wood Dale Ill.). Mestinon® was administered in a dose of 1 mg/kg/day, and purchased from Hoffmann La-Roche. Basel, Switzerland.

In series [6] the test system is healthy rats. Nature of the series: Treadmill running time of healthy rats. The series is classed as in vivo, rat. The settings on record: 250 μg/Kg. The method, then:
Exercise training on treadmill: To establish a clinical measure of neuromuscular performance in EAMG rats, a treadmill assay was performed. Animals were placed on an electrically powered treadmill [Moran et al. (1996) J Therm Biol 21, 171-181] at 25 m/min (a physical effort of moderate intensity) until visibly fatigued. The amount of time the rats were able to run was recorded before and after anti-sense or Mestinon® treatment.

In series [7] the test system is AChE-R mRNA. Nature of the series: In situ hybridization of AChE-R mRNA in rat muscle. The series is classed as in vivo. The settings on record: healthy and EAMG rats. The method, then:
as §1, with “software. […]” for “software.”

The record followed here is patent US7456154B2 (priority 2001, dated 2008).

For the substance 5′-CTGCCACGTTCTCCTGCACC-3′ [hEN101], the “Percent of small AChE-R-positive cells (<70 μm diameter) vs naive monkeys” value in series [1] (150 μg/kg/day) is reported as “caused an increase”. The “Effect on AChE-R labeling of larger neurons (>70 μm)” value in series [1] (150-500 μg/kg/day) is listed as “not discernable effect”. Also, the “AChE-R mRNA in spinal cord” value in series [1] (increasing daily dose from 0.15 (oral) to 0.50 (oral or i.v.) μg/g/day, i.v. more effective) was “significant reduction”. The “Percentage of labeled small (23 to 40 μm) and medium-sized (40 to 70 μm) neurons” value in series [1] (lower to higher oral dose (150 to 500 μg/kg/day), even further with i.v.) is “decreased significantly”. Also, in series [2] (12 hr following second day administration, without iso-OMPA), the “Total plasma cholinesterase activity (largely serum BChE)” value is reported as “generally unchanged”. Moreover, the “Post-injection increase of plasma AChE activity” value in series [2] (in presence of 1×10^−5M iso-OMPA, 500 μg/kg vs 150 μg/kg, more effective i.v.) is recorded as “effectively suppressed or attenuated”. Besides, the “AChE-S mRNA in spinal cord” value in series [3] was “no apparent reduction”.
As to “5′-CTGCGATATTTTCTTGTACC-3′ (chemistry not given here) [rEN101]”, in series [4] (50 μg/Kg i.v.), the “Duration of effective CMAP correction” value was 24 h. In series [4] (500 μg/Kg i.v.), the “Duration of CMAP rectification” value turned out to be 72 h. The “Extent of CMAP rectification” value in series [4] (500 μg/Kg i.v.) is “up to 125 % of baseline”. Besides, the “Average CMAP ratio in treated animals” value in series [4] (EAMG rats, FIG. 9B inset) is 107.4±3.8 % of first depolarization. Besides, in series [4] (doses between 10-500 μg/Kg), the “Duration of restoration of CMAP decline” value was “up to 72 h”. In addition, the “Time to retrieve stable CMAP ratios” value in series [4] (i.v., doses 10-500 μg/Kg) is no more than 1 h. For the same substance, the “IC50 of saturable CMAP response (dose response curve)” value in series [4] (i.v., up to 5 h following injection (1 and 5 h)) was less than 0.01 mg/kg. The “CMAP ratio (5th vs. 1st amplitude)” value in series [4] (intravenous, EAMG rats, 0 h, 50 μg/Kg) is reported as 0.87 ± 0.01; in series [4] (intravenous, EAMG rats, 1 h, 50 μg/Kg) it was 1.00 ± 0.01; in series [4] (intravenous, EAMG rats, 5 h, 50 μg/Kg), 0.98 ± 0.02; in series [4] (intravenous, EAMG rats, 24 h, 50 μg/Kg) it was 1.00 ± 0.00; in series [4] (oral, EAMG rats, 0 h, 50 μg/Kg oligonucleotide, 1000 μg/Kg pyridostigmine), 0.84 ± 0.03; in series [4] (oral, EAMG rats, 1 h, 50 μg/Kg oligonucleotide, 1000 μg/Kg pyridostigmine), 0.97 ± 0.02. Moreover, the “CMAP ratio (5th vs. 1st amplitude)” value came out at 0.97 ± 0.03 in series [4] (oral, EAMG rats, 5 h, 50 μg/Kg oligonucleotide, 1000 μg/Kg pyridostigmine); 1.01 ± 0.01 in series [4] (oral, EAMG rats, 24 h, 50 μg/Kg oligonucleotide, 1000 μg/Kg pyridostigmine); 1.00 ± 0.0 in series [5] (intravenous, 0 h); 1.00 ± 0.01 in series [5] (intravenous, 5 h); 1.02 ± 0.01 in series [5] (intravenous, 24 h); 1.01 ± 0.01 in series [5] (oral, 0 h). For the same substance, the “CMAP ratio (5th vs. 1st amplitude)” value in series [5] (oral, 1 h) is listed as 1.0 ± 0.02; in series [5] (oral, 5 h) it was 1.03 ± 0.02; in series [5] (oral, 24 h) it was 1.01 ± 0.00. Also, the “Effect of oral administration on CMAP decline” value in series [4] (oral gavage, 50 μg/Kg oligonucleotide, 1000 μg/kg pyridostigmine, CMAP 1, 5, 24 h) is recorded as “as effective as 25 μg/Kg administered i.v”. The “CMAP ratio 24 h following single oral administration” value in series [4] (single oral dose, rEN101 50 μg/kg, pyridostigmine 1000 μg/kg) is listed as “no decline was detected”. Moreover, in series [5] (i.v., doses 10-500 μg/Kg), the “Effect on CMAP in healthy animals” value is given as “did not affect CMAP”. Besides, the “Effect on treadmill running of healthy animals” value in series [6] is given as “not significantly affected”. The “AChE-R mRNA labeling in muscle” value in series [7] was “almost to the limit of detection”.
